Details in all cases: banded MIC grade
For one experiment, the system named is Aspergillus fumigatus. In words: Minimum inhibitory concentration, YAG medium. The format is cell-based. Put shortly: (§1)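 MICs (mg/L) reflect >70% inhibition of OD485 growth versus untreated control after 24 hrs at 35° C in YAG medium, spore inoculum 1-2×10^4 cfu/mL, drug range 50-0.05 mg/L.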
Experiment [1] concerns A. terreus 49. The experiment in a line: Minimum inhibitory concentration, YAG medium. In kind it is cell-based, Aspergillus terreus. Put shortly: (§2)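 Compound from a 5 mg/mL DMSO stock was further diluted in sterile water, then serially doubled in water and plated with Aspergillus spp. spores. After 24 hrs at 35° C, growth was monitored by optical density at 485 nm; MICs are given in mg/L.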

The next experiment relates to A. fumigatus. In words: Minimum inhibitory concentration, RPMI medium. In kind it is cell-based. The protocol: (§3) Between 1 and 5 mgs of compound were accurately weighed out into a sterile Eppendorf tube. The compound was dissolved in DMSO to give a solution containing 5 mg/mL. Tubes were stored at −20° C. until required.
(§4) On the day of testing thawed solutions were vortex mixed to ensure homogeneity. 30 μL of solution was removed and added to 570 μL of sterile water in a separate sterile Eppendorf. The thoroughly mixed solution was used to prepare a series of doubling dilutions in water, in a deep well plate. Thirteen replicate plates were prepared using a Minitrak by aspirating 20 μL from each well into eleven clear polystyrene 96 well plates.
(§5) Assays were also performed in RPMI medium (Roswell Park Memorial Media 1640). To perform MIC tests in this medium, dilutions of compounds are prepared in microtitre plates as described above. Fungal strains to be tested are grown and harvested in an identical manner to that described above, and each organism suspension was diluted in RPMI medium, typically containing 2% glucose and 0.135 M MOPS buffer (pH 7.0) to 0.5-2×10^4cfu/mL, rather than in YAG medium. 80 μL of an organism suspension was added to each well of the plate containing drug dilutions.
(§6) This produced MIC plates with a drug range 50-0.05 mg/L and organism inocula of 1-2×10^4 cfu/mL. All plates were incubated for 24-48 hrs at 35° C. Growth was assessed by monitoring the optical density at 485 nm for each well. The MIC of a compound is the lowest drug concentration that inhibits growth of an organism by >80% compared with a drug free control. The following organisms were tested: C. albicans, C. parapsilosis, C. tropicalis, C. glabrata, C. krusei, A. niger, A. fumigatus, A. terreus, A. flavus, A. terreus 49, and A. fumigatus 210.

Experiment [2] relates to A. fumigatus 210. The experiment in a line: Minimum inhibitory concentration, RPMI medium. The format is cell-based. As to the method:
as §3, §4, §5, §6

The test system of experiment [3] is A. fumigatus 210. In words: Minimum inhibitory concentration, YAG medium. In kind it is cell-based, Aspergillus fumigatus. Put shortly: as §1
A further experiment concerns Aspergillus terreus. The experiment in a line: Minimum inhibitory concentration, YAG medium. The format is cell-based. The procedure, abridged:
as §2

A further experiment deals with Aspergillus flavus. In words: Minimum inhibitory concentration, YAG medium. In kind it is cell-based. The procedure, abridged: as §2
The subject of a further experiment is Aspergillus niger. In words: Minimum inhibitory concentration, YAG medium. The format is cell-based. The procedure, abridged:
as §2

The next experiment has as its system C. glabrata. In words: Minimum inhibitory concentration, RPMI medium. The format is cell-based. Put shortly: (§7)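 Compound stock was made at 5 mg/mL in DMSO, diluted in sterile water and serially doubled in water, then tested in RPMI 1640 medium. Plates were incubated 24-48 hrs at 35° C, and growth was scored as optical density at 485 nm.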
In another experiment the test system is C. krusei. The experiment in a line: Minimum inhibitory concentration, RPMI medium. The format is cell-based. The procedure, abridged:
as §7

For the next experiment, the system named is C. albicans. In words: Minimum inhibitory concentration, RPMI medium. In kind it is cell-based. The procedure, abridged:
as §7

For a further experiment, the system named is A. niger. In words: Minimum inhibitory concentration, RPMI medium. In kind it is cell-based. The procedure, abridged:
as §7

The test system of another experiment is A. terreus. In words: Minimum inhibitory concentration, RPMI medium. The format is cell-based. Put shortly:
as §7

The next experiment concerns A. flavus. In words: Minimum inhibitory concentration, RPMI medium. The format is cell-based. Put shortly:
as §7

For the next experiment, the system named is C. tropicalis. In words: Minimum inhibitory concentration, RPMI medium. In kind it is cell-based. The procedure, abridged:
as §7

For experiment [4], the system named is A. terreus 49. The experiment in a line: Minimum inhibitory concentration, RPMI medium. The format is cell-based. The procedure, abridged: as §7
In another experiment the test system is C. parapsilosis. The experiment in a line: Minimum inhibitory concentration, RPMI medium. The format is cell-based. The procedure, abridged:
as §7

With `NC1=NN=C(CCCCSCc2ccc(Cl)cc2)CS1`, the “MIC grade, A. FUMIGATUS, YAG media” value against Aspergillus fumigatus was 3 (3: 0.2-1 mg/L). Besides, the “MIC grade, A. TERREUS 49, YAG media” value against A. terreus 49 [1] was 4 (4: <0.2 mg/L). Also, the “MIC grade, A. FUMIGATUS, RPMI media” value against A. fumigatus is reported as 2 (2: 5-20 mg/L). Moreover, the “MIC grade, A. FUMIGATUS 210, RPMI media” value against A. fumigatus 210 [2] is on record as 2 (2: 5-20 mg/L). Further, the “MIC grade, A. FUMIGATUS 210, YAG media” value against A. fumigatus 210 [3] is reported as 3 (3: 0.2-1 mg/L). The “MIC grade, A. TERREUS, YAG media” value in the experiment with Aspergillus terreus is 4 (4: <0.2 mg/L). Also, the “MIC grade, A. FLAVUS, YAG media” value in the experiment on Aspergillus flavus is recorded as 4 (4: <0.2 mg/L). Also, the “MIC grade, A. NIGER, YAG media” value in the experiment on Aspergillus niger is 4 (4: <0.2 mg/L). Besides, the “MIC grade, C. GLABRATA, RPMI media” value with C. glabrata is recorded as 2 (2: 5-20 mg/L). Moreover, the “MIC grade, C. KRUSEI, RPMI media” value in the experiment on C. krusei was 3 (3: 1-5 mg/L). Further, the “MIC grade, C. ALBICANS, RPMI media” value against C. albicans was 3 (3: 1-5 mg/L). In addition, in the experiment on A. niger, the “MIC grade, A. NIGER, RPMI media” value was 3 (3: 1-5 mg/L). For the same compound, in the experiment with A. terreus, the “MIC grade, A. TERREUS, RPMI media” value is 2 (2: 5-20 mg/L). The “MIC grade, A. FLAVUS, RPMI media” value against A. flavus is given as 3 (3: 1-5 mg/L). The “MIC grade, C. TROPICALIS, RPMI media” value against C. tropicalis is 3 (3: 1-5 mg/L). In addition, in the experiment with A. terreus 49 [4], the “MIC grade, A. TERREUS 49, RPMI media” value is given as 2 (2: 5-20 mg/L). Moreover, the “MIC grade, C. PARAPSILOSIS, RPMI media” value in the experiment with C. parapsilosis was 3 (3: 1-5 mg/L).
As to `COc1ccc(COCCCCC2=NN=C(N)SC2)cc1`, the “MIC grade, A. FUMIGATUS, YAG media” value against Aspergillus fumigatus was 2 (2: 1-5 mg/L). Besides, the “MIC grade, A. TERREUS 49, YAG media” value in the experiment with A. terreus 49 [1] is given as 2 (2: 1-5 mg/L). Further, in the experiment with A. fumigatus, the “MIC grade, A. FUMIGATUS, RPMI media” value is on record as 1 (1: ≥20 mg/L). Also, in the experiment on A. fumigatus 210 [2], the “MIC grade, A. FUMIGATUS 210, RPMI media” value was 1 (1: ≥20 mg/L). For the same compound, the “MIC grade, A. FUMIGATUS 210, YAG media” value with A. fumigatus 210 [3] is reported as 2 (2: 1-5 mg/L). Also, the “MIC grade, A. TERREUS, YAG media” value against Aspergillus terreus is 2 (2: 1-5 mg/L). Also, in the experiment with Aspergillus flavus, the “MIC grade, A. FLAVUS, YAG media” value is 2 (2: 1-5 mg/L). Besides, in the experiment with Aspergillus niger, the “MIC grade, A. NIGER, YAG media” value is reported as 2 (2: 1-5 mg/L). In addition, in the experiment on C. glabrata, the “MIC grade, C. GLABRATA, RPMI media” value was 2 (2: 5-20 mg/L). The “MIC grade, C. KRUSEI, RPMI media” value in the experiment on C. krusei is 2 (2: 5-20 mg/L). Also, the “MIC grade, C. ALBICANS, RPMI media” value in the experiment with C. albicans was 2 (2: 5-20 mg/L). In the experiment on A. niger, the “MIC grade, A. NIGER, RPMI media” value was 1 (1: ≥20 mg/L). Also, the “MIC grade, A. TERREUS, RPMI media” value against A. terreus is on record as 1 (1: ≥20 mg/L). In addition, the “MIC grade, A. FLAVUS, RPMI media” value against A. flavus is on record as 1 (1: ≥20 mg/L). Moreover, the “MIC grade, C. TROPICALIS, RPMI media” value against C. tropicalis was 2 (2: 5-20 mg/L). For the same compound, the “MIC grade, A. TERREUS 49, RPMI media” value with A. terreus 49 [4] is reported as 1 (1: ≥20 mg/L). Besides, the “MIC grade, C. PARAPSILOSIS, RPMI media” value with C. parapsilosis is given as 2 (2: 5-20 mg/L).
For `NC1=NN=C(CCCCOCc2ccc(Cl)cc2Cl)CS1`, the “MIC grade, A. FUMIGATUS, YAG media” value in the experiment on Aspergillus fumigatus is reported as 2 (2: 1-5 mg/L). Besides, the “MIC grade, A. TERREUS 49, YAG media” value in the experiment on A. terreus 49 [1] was 2 (2: 1-5 mg/L). In the experiment with A. fumigatus, the “MIC grade, A. FUMIGATUS, RPMI media” value is given as 1 (1: ≥20 mg/L). Moreover, the “MIC grade, A. FUMIGATUS 210, RPMI media” value with A. fumigatus 210 [2] is reported as 1 (1: ≥20 mg/L). For the same compound, the “MIC grade, A. FUMIGATUS 210, YAG media” value against A. fumigatus 210 [3] is 2 (2: 1-5 mg/L). Besides, the “MIC grade, A. TERREUS, YAG media” value in the experiment on Aspergillus terreus is recorded as 2 (2: 1-5 mg/L). Moreover, the “MIC grade, A. FLAVUS, YAG media” value against Aspergillus flavus is 2 (2: 1-5 mg/L). Also, the “MIC grade, A. NIGER, YAG media” value in the experiment on Aspergillus niger was 3 (3: 0.2-1 mg/L). In the experiment on C. glabrata, the “MIC grade, C. GLABRATA, RPMI media” value is 1 (1: ≥20 mg/L). For the same compound, the “MIC grade, C. KRUSEI, RPMI media” value against C. krusei is listed as 2 (2: 5-20 mg/L). The “MIC grade, C. ALBICANS, RPMI media” value in the experiment on C. albicans is 2 (2: 5-20 mg/L). Further, in the experiment with A. niger, the “MIC grade, A. NIGER, RPMI media” value is recorded as 1 (1: ≥20 mg/L). In addition, the “MIC grade, A. TERREUS, RPMI media” value against A. terreus is reported as 2 (2: 5-20 mg/L). For the same compound, the “MIC grade, A. FLAVUS, RPMI media” value against A. flavus was 2 (2: 5-20 mg/L). The “MIC grade, C. TROPICALIS, RPMI media” value in the experiment on C. tropicalis is given as 2 (2: 5-20 mg/L). Further, the “MIC grade, A. TERREUS 49, RPMI media” value against A. terreus 49 [4] is given as 2 (2: 5-20 mg/L). Moreover, in the experiment on C. parapsilosis, the “MIC grade, C. PARAPSILOSIS, RPMI media” value is 2 (2: 5-20 mg/L).

The record behind these values is patent publication US20180201592A1, “2-AMINO-1,3,4-THIADIAZINE AND 2-AMINO-1,3,4-OXADIAZINE BASED ANTIFUNGAL AGENTS” (F2G Limited, priority 2015, published 2018).
